# How the values were obtained:
# [1] = tested on: peripheric mononuclear cells (MNC) or T lymphocytes; settings: simultaneous and separate administration of inhibitors of DP IV and APN; cited from earlier work
# hippocampal neurons = assay: Neuroprotection in organotypical hippocampus slices after 40 min oxygen and glucose deprivation (propidium iodide fluorescence); format: cell-based, rat; settings: exclusively actinonine (10 μm), 24 h before, during and 24 h after ischemia; n=5 experiments
# Protocol: FIG. 2: Protective effect of inhibitors of DP IV (I63) and APN (actinonine) on the survival of hippocampal neurons after a transient deprivation of oxygen and glucose: There are shown in the FIG. transmission photographs (respective left sides) and fluorescence photographs (respective right sides) of hippocampus slices 24 h after an experimental ischemia. The intensity of the red fluorescence corresponds to the neuronal cell damage (B, D). The slices shown in FIGS. 2A and 2B were subjected to a 40 min deprivation of oxygen and glucose in the absence of DP IV or APN inhibitors. […] The protective effect occurring at a simultaneous application of I63 and actinonine is significant (P=0,0000; calculated by means of a two side heteroscedastic t test) and is about 62%.
# Organotypical hippocampus slices were prepared and cultivated according to Striggow F et al. (Striggow, F, Riek M, Breder J, Henrich-Noak P, Reymann K G, Reiser G (2000). The protease thrombin is an endogenous mediator of hippocampal neuroprotection against ischemia at low concentrations but causes degeneration at high concentrations. Proc. Natl. Acad. Sci. (USA) 97: 2264-2269). […] Only after said time, there occurrs a characteristic red fluorescence, the intensity of which is proportional to the neuronal cell damage. […]
SMILES,DNA synthesis and proliferation of human immune cells [1],protective effect on the survival of hippocampal neurons after transient ischemia (hippocampal neurons)
"N[C@@H](CCCCNC(=O)OCc1ccc([N+](=O)[O-])cc1)C(=O)N1CCSC1 [I49, Lys[Z(NO2)] thiazolidide]",inhibited,
CCCCC[C@H](CC(=O)NO)C(=O)N[C@H](C(=O)N1CCC[C@H]1CO)C(C)C [actinonine],inhibited,about 34%

# Reference: patent US20040147434A1, “Use of enzyme inhibitors of the dipeptidypeptidase iv (ec3.3.14.5) in addition to the aminopeptidase n (ec 3.4.11.2), individually or in a combination thereof, and pharmaceutical preparations thereof for the prevention and/or therapy of ischaemia-caused acute and chronic neurodegenerative process …” (priority 2001, published 2004)
